Source: BindingDB's records for patent US20250214965 (Hangzhou Innogate Pharma, 2025)
pIC50: −log10 of the molar value.

target: T1, Kinesin-like protein KIF18A (Homo sapiens, UniProt Q8NI77); assay: Inhibition of KIF18A Enzyme Activity
T1 sequence (Q8NI77 whole entry): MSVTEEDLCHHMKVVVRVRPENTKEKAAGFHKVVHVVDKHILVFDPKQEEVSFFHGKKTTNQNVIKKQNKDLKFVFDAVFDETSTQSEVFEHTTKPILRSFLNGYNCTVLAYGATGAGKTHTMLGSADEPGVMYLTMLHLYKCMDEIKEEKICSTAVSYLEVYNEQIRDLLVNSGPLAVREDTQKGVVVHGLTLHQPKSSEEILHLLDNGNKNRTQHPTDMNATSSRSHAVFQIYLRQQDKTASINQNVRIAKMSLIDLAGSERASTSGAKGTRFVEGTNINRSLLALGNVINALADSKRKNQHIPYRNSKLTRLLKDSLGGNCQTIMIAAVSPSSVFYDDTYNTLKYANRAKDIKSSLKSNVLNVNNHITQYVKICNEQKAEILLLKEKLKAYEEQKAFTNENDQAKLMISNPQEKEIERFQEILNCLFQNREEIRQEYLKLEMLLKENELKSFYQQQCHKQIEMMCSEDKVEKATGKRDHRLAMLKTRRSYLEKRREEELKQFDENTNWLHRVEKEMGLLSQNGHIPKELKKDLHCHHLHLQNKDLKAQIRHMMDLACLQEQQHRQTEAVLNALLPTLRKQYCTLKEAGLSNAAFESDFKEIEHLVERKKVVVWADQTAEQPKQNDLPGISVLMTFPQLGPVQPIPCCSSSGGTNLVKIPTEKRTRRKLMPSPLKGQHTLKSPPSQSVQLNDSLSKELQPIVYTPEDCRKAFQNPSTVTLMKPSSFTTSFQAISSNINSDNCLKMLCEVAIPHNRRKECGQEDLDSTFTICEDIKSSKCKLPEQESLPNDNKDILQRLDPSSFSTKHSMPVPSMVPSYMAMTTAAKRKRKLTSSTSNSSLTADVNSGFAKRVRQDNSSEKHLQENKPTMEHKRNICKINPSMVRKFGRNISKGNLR
Protocol: The ADP-Glo method was used to test the enzymatic activity of KIF18A. The compound was diluted 3-fold with DMSO at a starting concentration of 3000 nM, for a total of ten concentrations, and tested in duplicate. Echo was used to transfer 25 nL of the diluted compound to a 384-well plate, and 2.5 μL of enzyme working solution was added. Plate was centrifuged at 1000 rpm for 1 min, and incubated at 25° C. for 10 min. 2.5 μL of ATP and substrate solution was added to start the reaction, and plate was incubated at 25° C. for 60 min. 4 μL of ADP-Glo solution was added to the 384-well plate, and plate was incubated at 25° C. for 40 min. 8 μL of detection solution was added and incubated at 25° C. for 40 min, and BMG was used to read the […] value. Inhibition rate was calculate according to the following formula: Inhibition rate (%)=(DMSO well−compound well)/(DMSO well−blank control well)×100%. The IC50 value of each compound was analyzed using the nonlinear regression method of XLFit 5.5.0 software. The formula is: Y=Bottom+(Top−Bottom)/(1+10^((Log IC50−X)*HillSlope)).

SMILES	pIC50
Cc1cc(NC(=O)c2ccc(NS(=O)(=O)[C@@H](C)CO)cc2N2CCC(=C(F)F)CC2)nc(N2CCC(F)(F)CC2)n1 [US20250214965, Compound 69]	> 7.00
Cc1cc(NC(=O)c2ccc(NS(=O)(=O)[C@H](C)CO)cc2N2CCC(=C(F)F)CC2)nc(N2CCC(F)(F)CC2)n1 [US20250214965, Compound 68]	> 7.30

Second part, the compound after the results:

pIC50	SMILES
> 7.30	Cc1cc(NC(=O)c2ccc(NS(=O)(=O)CCO)cc2N2CCC3(CC2)CC3)nc(N2CCC(F)(F)CC2)c1F [US20250214965, Compound 85]
> 7.30	Cc1cc(NC(=O)c2ccc(NS(=O)(=O)[C@H](C)CO)cc2N2CCC(=C(F)F)CC2)nc(N2CCC(F)(F)CC2)c1 [US20250214965, Compound 82]
> 7.30	Cc1cc(NC(=O)c2ccc(NS(=O)(=O)CCO)cc2N2CCC(=C(F)F)CC2)nc(N2CCC(F)(F)CC2)c1F [US20250214965, Compound 79]
